Measurements: the supplement of paper PMC10307832

Key:
Assay in all cases: relative viability (nuclei count vs DMSO), 5 days (fraction); higher = more cells survive
NCI-H1651 = tested on: NCI-H1651
Outline: (§1)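 Medians of duplicate plates are given as relative viability. That measure is the nuclei count in treated wells divided by the count in vehicle wells. Counts were taken on 4× images of lung cancer cell lines in 1536-well plates, 5 days after pin-tool dosing the day after seeding with one drug alone or a fixed anchor-drug dose plus five library-drug doses (not always all listed) in √10 steps.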

NCI-H2023 = tested on: NCI-H2023
Outline: as §1

NCI-H460 = tested on: NCI-H460
Outline: as §1

NCI-H1563 = tested on: NCI-H1563
Outline: as §1

NCI-H358 = tested on: NCI-H358
Outline: as §1

SW 900 = tested on: SW 900
Outline: as §1

201T = tested on: 201T
Outline: as §1

PC-3 [JPC-3] = tested on: PC-3 [JPC-3]
Outline: as §1

COR-L 105 = tested on: COR-L 105
Outline: as §1

NCI-H838 = tested on: NCI-H838
Outline: as §1

LU99A = tested on: LU99A
Outline: as §1

Cc1csc(=NC2CCCCC2)n1/N=C/c1ccc(O)c(O)c1O [MIM1] + COc1cc2c(Oc3ccc(NC(=O)C4(C(=O)Nc5ccc(F)cc5)CC4)cc3F)ccnc2cc1OCCCN1CCOCC1 [Foretinib] (partner 0.25 µM)
relative viability (NCI-H1651; first compound 6.325 µM): 0.648
relative viability (NCI-H1651; first compound 20 µM): 0.652
relative viability (NCI-H2023; first compound 0.2 µM): 0.691
relative viability (NCI-H2023; first compound 0.6325 µM): 0.941
relative viability (NCI-H2023; first compound 2 µM): 0.7
relative viability (NCI-H2023; first compound 6.325 µM): 0.599
relative viability (NCI-H2023; first compound 20 µM): 0.453
relative viability (NCI-H460; first compound 0.2 µM): 0.954
relative viability (NCI-H460; first compound 0.6325 µM): 0.987
relative viability (NCI-H460; first compound 2 µM): 0.862
relative viability (NCI-H460; first compound 6.325 µM): 0.493
relative viability (NCI-H460; first compound 20 µM): 0.0555
relative viability (NCI-H1563; first compound 0.2 µM): 0.971
relative viability (NCI-H1563; first compound 0.6325 µM): 0.975
relative viability (NCI-H1563; first compound 2 µM): 0.866
relative viability (NCI-H1563; first compound 6.325 µM): 0.819
relative viability (NCI-H1563; first compound 20 µM): 0.772
relative viability (NCI-H358; first compound 0.2 µM): 0.646
relative viability (NCI-H358; first compound 0.6325 µM): 0.758
relative viability (NCI-H358; first compound 2 µM): 0.623
relative viability (NCI-H358; first compound 6.325 µM): 0.348
relative viability (NCI-H358; first compound 20 µM): 0.149
relative viability (SW 900; first compound 0.2 µM): 1.17
relative viability (SW 900; first compound 0.6325 µM): 0.864
relative viability (SW 900; first compound 2 µM): 0.854
relative viability (SW 900; first compound 6.325 µM): 0.917
relative viability (SW 900; first compound 20 µM): 0.443
relative viability (201T; first compound 0.2 µM): 1.11
relative viability (201T; first compound 2 µM): 0.993
relative viability (201T; first compound 6.325 µM): 0.709
relative viability (201T; first compound 20 µM): 0.483
relative viability (PC-3 [JPC-3]; first compound 0.2 µM): 1.01
relative viability (PC-3 [JPC-3]; first compound 0.6325 µM): 1.05
relative viability (PC-3 [JPC-3]; first compound 2 µM): 1.01
relative viability (PC-3 [JPC-3]; first compound 6.325 µM): 0.763
relative viability (PC-3 [JPC-3]; first compound 20 µM): 0.531
relative viability (COR-L 105; first compound 0.2 µM): 1.02
relative viability (COR-L 105; first compound 0.6325 µM): 0.821
relative viability (COR-L 105; first compound 2 µM): 1.19
relative viability (COR-L 105; first compound 6.325 µM): 1.08
relative viability (COR-L 105; first compound 20 µM): 0.774
relative viability (NCI-H838; first compound 0.2 µM): 1.01
relative viability (NCI-H838; first compound 0.6325 µM): 1.01
relative viability (NCI-H838; first compound 2 µM): 0.761
relative viability (NCI-H838; first compound 6.325 µM): 0.853
relative viability (NCI-H838; first compound 20 µM): 0.657
relative viability (LU99A; first compound 0.2 µM): 0.808
relative viability (LU99A; first compound 0.6325 µM): 0.775
relative viability (LU99A; first compound 2 µM): 0.751
relative viability (LU99A; first compound 6.325 µM): 0.743
relative viability (LU99A; first compound 20 µM): 0.407
